{
  "source": "paper PMC11207335",
  "about": "“In Vitro Metabolism and Transport Characteristics of Zastaprazan” (Pharmaceutics, 2024)",
  "key": {"MATE1": {"target": "T1, MATE1 (Homo sapiens, UniProt Q96FL8)", "T1 sequence (Q96FL8 1-570)": "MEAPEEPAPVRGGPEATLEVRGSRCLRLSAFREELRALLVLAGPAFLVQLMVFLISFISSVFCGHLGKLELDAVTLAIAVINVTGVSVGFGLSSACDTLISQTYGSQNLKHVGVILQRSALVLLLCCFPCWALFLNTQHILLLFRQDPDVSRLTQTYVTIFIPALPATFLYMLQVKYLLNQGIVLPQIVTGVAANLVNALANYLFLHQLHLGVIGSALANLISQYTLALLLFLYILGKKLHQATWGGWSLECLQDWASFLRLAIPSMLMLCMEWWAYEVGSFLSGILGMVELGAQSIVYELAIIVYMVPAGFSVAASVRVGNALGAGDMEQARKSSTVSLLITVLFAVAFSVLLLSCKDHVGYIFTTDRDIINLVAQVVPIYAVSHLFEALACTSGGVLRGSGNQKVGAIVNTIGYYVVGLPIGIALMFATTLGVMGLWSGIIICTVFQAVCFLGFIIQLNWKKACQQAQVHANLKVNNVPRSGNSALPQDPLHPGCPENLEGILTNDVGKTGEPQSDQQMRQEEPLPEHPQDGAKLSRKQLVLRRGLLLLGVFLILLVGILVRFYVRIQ", "test": "Uptake into HEK293 cells expressing MATE1", "conditions": "for Uptake Rate / Fold-Change: 6 μM; for Substrate: MATE1; for Fold-Change: vs HEK293-mock"}, "OATP1B1": {"target": "T2, OATP1B1 (Homo sapiens, UniProt Q9Y6L6)", "T2 sequence (Q9Y6L6 1-691)": "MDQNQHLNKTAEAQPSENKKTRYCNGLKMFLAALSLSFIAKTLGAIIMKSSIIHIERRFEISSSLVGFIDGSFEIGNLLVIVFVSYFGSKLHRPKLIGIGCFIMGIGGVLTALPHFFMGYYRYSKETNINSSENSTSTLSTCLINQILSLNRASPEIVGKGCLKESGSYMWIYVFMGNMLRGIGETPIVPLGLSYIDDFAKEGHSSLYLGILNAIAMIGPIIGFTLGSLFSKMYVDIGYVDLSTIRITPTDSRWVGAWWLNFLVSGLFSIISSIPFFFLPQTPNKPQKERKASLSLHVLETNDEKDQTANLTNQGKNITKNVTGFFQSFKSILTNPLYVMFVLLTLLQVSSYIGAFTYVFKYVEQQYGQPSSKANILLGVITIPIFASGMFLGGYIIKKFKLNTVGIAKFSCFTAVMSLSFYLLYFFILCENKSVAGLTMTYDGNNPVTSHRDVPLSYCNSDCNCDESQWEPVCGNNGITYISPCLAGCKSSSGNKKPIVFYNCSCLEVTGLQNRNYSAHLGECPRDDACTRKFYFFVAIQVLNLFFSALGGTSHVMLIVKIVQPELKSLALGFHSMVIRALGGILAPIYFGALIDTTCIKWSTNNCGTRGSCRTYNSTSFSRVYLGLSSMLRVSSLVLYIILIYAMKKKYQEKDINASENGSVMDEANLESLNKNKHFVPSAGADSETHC", "test": "Uptake into HEK293 cells expressing OATP1B1", "conditions": "for Uptake Rate / Fold-Change: 6 μM; for Substrate: OATP1B1; for Fold-Change: vs HEK293-mock"}, "OATP1B3": {"target": "T3, OATP1B3 (Homo sapiens, UniProt Q9NPD5)", "T3 sequence (Q9NPD5 1-702)": "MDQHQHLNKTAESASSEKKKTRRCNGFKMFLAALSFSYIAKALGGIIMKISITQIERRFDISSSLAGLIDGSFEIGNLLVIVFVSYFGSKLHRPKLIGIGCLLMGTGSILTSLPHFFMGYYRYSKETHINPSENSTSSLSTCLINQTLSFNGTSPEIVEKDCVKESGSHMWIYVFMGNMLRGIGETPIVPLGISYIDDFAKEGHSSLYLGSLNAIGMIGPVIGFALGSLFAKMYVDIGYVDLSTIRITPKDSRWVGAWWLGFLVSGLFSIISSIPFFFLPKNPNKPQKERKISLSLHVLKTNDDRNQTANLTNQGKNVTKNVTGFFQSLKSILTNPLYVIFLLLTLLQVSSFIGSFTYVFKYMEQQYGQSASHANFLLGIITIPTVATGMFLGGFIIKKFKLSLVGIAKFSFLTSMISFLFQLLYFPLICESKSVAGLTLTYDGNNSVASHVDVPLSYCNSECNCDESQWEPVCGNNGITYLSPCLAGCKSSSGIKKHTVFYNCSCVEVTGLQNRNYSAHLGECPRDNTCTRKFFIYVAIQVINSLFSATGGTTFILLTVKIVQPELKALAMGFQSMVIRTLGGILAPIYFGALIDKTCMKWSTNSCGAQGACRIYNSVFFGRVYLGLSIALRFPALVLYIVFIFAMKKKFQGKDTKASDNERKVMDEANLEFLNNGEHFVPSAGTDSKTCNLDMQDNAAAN", "test": "Uptake into HEK293 cells expressing OATP1B3", "conditions": "for Uptake Rate / Fold-Change: 6 μM; for Substrate: OATP1B3; for Fold-Change: vs HEK293-mock"}, "[1]": {"conditions": "HEK293-MATE1, cimetidine 100 μM"}},
  "data": [
    {"smiles": "Cc1cccc(C)c1CNc1cc(C(=O)N2CCC2)cn2c(C)c(C)nc12", "note": "[JP-1366, 1-azetidinyl(8-(((2,6-dimethylphenyl)methyl)amino)-2,3-dimethylimidazo(1,2-a)pyridin-6-yl)methanone]", "values": [
      {"measurement": "Uptake Rate", "setting": "MATE1; [1]", "result": "78.57 ± 5.38", "unit": "pmol/min/10^5 Cells"},
      {"measurement": "Uptake Rate", "setting": "MATE1; HEK293-MATE1, control", "result": "65.32 ± 4.13", "unit": "pmol/min/10^5 Cells"},
      {"measurement": "Substrate", "setting": "MATE1", "result": "No"},
      {"measurement": "Uptake Rate", "setting": "OATP1B1; HEK293-OATP1B1, control", "result": "52.79 ± 2.39", "unit": "pmol/min/10^5 Cells"},
      {"measurement": "Uptake Rate", "setting": "OATP1B1; HEK293-OATP1B1, rifampin 20 μM", "result": "53.60 ± 3.73", "unit": "pmol/min/10^5 Cells"},
      {"measurement": "Substrate", "setting": "OATP1B1", "result": "No"},
      {"measurement": "Uptake Rate", "setting": "OATP1B3; HEK293-OATP1B3, control", "result": "44.54 ± 0.74", "unit": "pmol/min/10^5 Cells"},
      {"measurement": "Uptake Rate", "setting": "OATP1B3; HEK293-OATP1B3, rifampin 20 μM", "result": "52.67 ± 2.99", "unit": "pmol/min/10^5 Cells"},
      {"measurement": "Substrate", "setting": "OATP1B3", "result": "No"}
    ]},
    {"smiles": "Cc1cccc(CO)c1CNc1cc(C(=O)N2CCC2)cn2c(C)c(C)nc12", "note": "[M1, azetidin-1-yl(8-((2-(hydroxymethyl)-6-methyl-benzyl)amino)-2,3-dimethylimidazo[1,2-a]pyridin-6-yl)methanone]", "values": [
      {"measurement": "Uptake Rate", "setting": "MATE1; [1]", "result": "78.57 ± 5.38", "unit": "pmol/min/10^5 Cells"},
      {"measurement": "Fold-Change", "setting": "MATE1; [1]", "result": 1.5},
      {"measurement": "Uptake Rate", "setting": "MATE1; HEK293-MATE1, control", "result": "65.32 ± 4.13", "unit": "pmol/min/10^5 Cells"},
      {"measurement": "Fold-Change", "setting": "MATE1; HEK293-MATE1, control", "result": 1.3},
      {"measurement": "Substrate", "setting": "MATE1", "result": "No"},
      {"measurement": "Uptake Rate", "setting": "OATP1B1; HEK293-OATP1B1, control", "result": "52.79 ± 2.39", "unit": "pmol/min/10^5 Cells"},
      {"measurement": "Fold-Change", "setting": "OATP1B1; HEK293-OATP1B1, control", "result": 1.0},
      {"measurement": "Uptake Rate", "setting": "OATP1B1; HEK293-OATP1B1, rifampin 20 μM", "result": "53.60 ± 3.73", "unit": "pmol/min/10^5 Cells"},
      {"measurement": "Fold-Change", "setting": "OATP1B1; HEK293-OATP1B1, rifampin 20 μM", "result": 1.0},
      {"measurement": "Substrate", "setting": "OATP1B1", "result": "No"},
      {"measurement": "Uptake Rate", "setting": "OATP1B3; HEK293-OATP1B3, control", "result": "44.54 ± 0.74", "unit": "pmol/min/10^5 Cells"},
      {"measurement": "Fold-Change", "setting": "OATP1B3; HEK293-OATP1B3, control", "result": 0.9},
      {"measurement": "Uptake Rate", "setting": "OATP1B3; HEK293-OATP1B3, rifampin 20 μM", "result": "52.67 ± 2.99", "unit": "pmol/min/10^5 Cells"},
      {"measurement": "Fold-Change", "setting": "OATP1B3; HEK293-OATP1B3, rifampin 20 μM", "result": 1.0},
      {"measurement": "Substrate", "setting": "OATP1B3", "result": "No"}
    ]}
  ]
}
